Measurements taken from ChEMBL document CHEMBL1201862, “PubChem BioAssay data set” (2004).
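Where inhibition never reached the appropriate level, the endpoint shown equals the highest concentration tested. Otherwise, values were interpolated linearly from a five-concentration, 48-hour dose response in 96-well plates. GI50 marks 50% less growth.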 Activity calls are given as the source filed them. Cut-off read from the data, not from the text of the source: active = GI50 up to about 1.1 µM and inactive = higher.

Columns and labels:
Assay in all cases: NCI-60 cell line screen, 48 h
RPMI-8226 = test system: RPMI-8226
NCI-H226 = test system: NCI-H226
HOP-62 = test system: HOP-62
NCI/ADR-RES = test system: NCI/ADR-RES
SK-MEL-5 = test system: SK-MEL-5
OVCAR-8 = test system: OVCAR-8
MCF7 = test system: MCF7
HT-29 = test system: HT-29
SF-539 = test system: SF-539
T47D = test system: T47D
MDA-MB-231 = test system: MDA-MB-231
MDA-N = test system: MDA-N
786-0 = test system: 786-0
Hs-578T = test system: Hs-578T
SR = test system: SR
PC-3 = test system: PC-3
MDA-MB-435 = test system: MDA-MB-435
BT-549 = test system: BT-549
DU-145 = test system: DU-145

Row | Compound | GI50 (RPMI-8226) | GI50 (NCI-H226) | GI50 (HOP-62) | GI50 (NCI/ADR-RES) | GI50 (SK-MEL-5) | GI50 (OVCAR-8) | GI50 (MCF7) | GI50 (HT-29) | GI50 (SF-539) | GI50 (T47D) | GI50 (MDA-MB-231) | GI50 (MDA-N) | GI50 (786-0) | GI50 (Hs-578T) | GI50 (SR) | GI50 (PC-3) | GI50 (MDA-MB-435) | GI50 (BT-549) | GI50 (DU-145)
1 | Cc1c2ccncc2c(C)c2c1[nH]c1ccc(OCCN(C)C)cc12 | 0.0638 µM (active) | 0.365 µM (active) | 0.671 µM (active) | 0.0916 µM (active) | 1.35 µM (inactive) | 0.112 µM (active) | 0.164 µM (active) | 0.171 µM (active) | 0.832 µM (active) |  |  |  |  |  |  |  |  |  | 
2 | Nc1ccc(S(=O)(=O)c2ccc(NCN3C(=O)NC(=O)C(=O)C3=O)cc2)cc1 [ALLANTODAPSONE] |  | > 100 µM (inactive) | > 100 µM (inactive) | > 100 µM (inactive) | > 100 µM (inactive) | > 100 µM (inactive) |  | > 100 µM (inactive) |  | > 100 µM (inactive) | > 100 µM (inactive) | > 100 µM (inactive) | > 100 µM (inactive) | > 100 µM (inactive) | > 100 µM (inactive) | > 100 µM (inactive) | > 100 µM (inactive) | > 100 µM (inactive) | 
3 | CC(Cc1ccccc1)NC1=NCCO1 (stereo unspecified) | 37.8 µM (inactive) | > 100 µM (inactive) | 84.1 µM (inactive) |  | 32.3 µM (inactive) | 48.1 µM (inactive) | > 100 µM (inactive) | 20.1 µM (inactive) | 14 µM (inactive) | 35.1 µM (inactive) | 16.2 µM (inactive) | 25.9 µM (inactive) |  | 29.3 µM (inactive) | 42.8 µM (inactive) | 34.8 µM (inactive) |  |  | 
4 | CCOC(=O)c1c(Cl)nc2ccccc2c1N=[N+]=[N-] | 43.5 µM (inactive) | 32.1 µM (inactive) | 49.3 µM (inactive) |  | 44.5 µM (inactive) |  |  | 19.6 µM (inactive) | 18.6 µM (inactive) | 22.7 µM (inactive) | 16.2 µM (inactive) | 21 µM (inactive) |  | 24.9 µM (inactive) | 32.7 µM (inactive) | 32.2 µM (inactive) | 21.1 µM (inactive) | 16.4 µM (inactive) | 
5 | N#CC1(C#N)C(c2ccccc2)NC23CCCCC2C1(C#N)C(=O)N3 (stereo unspecified) | > 100 µM (inactive) | > 100 µM (inactive) | > 100 µM (inactive) | > 100 µM (inactive) |  | > 100 µM (inactive) | > 100 µM (inactive) | > 100 µM (inactive) | > 100 µM (inactive) | > 100 µM (inactive) | > 100 µM (inactive) | > 100 µM (inactive) | > 100 µM (inactive) |  | 57.8 µM (inactive) | > 100 µM (inactive) | > 100 µM (inactive) | > 100 µM (inactive) | > 100 µM (inactive)
6 | CN(N=O)c1nc2c(C(N)=O)ncn2s1 | 45 µM (inactive) | > 100 µM (inactive) | 28.8 µM (inactive) | 39.7 µM (inactive) | > 100 µM (inactive) | 30.5 µM (inactive) | 86.7 µM (inactive) | > 100 µM (inactive) | 80.7 µM (inactive) | > 100 µM (inactive) | 36.3 µM (inactive) | > 100 µM (inactive) | 85.1 µM (inactive) | > 100 µM (inactive) | 48.9 µM (inactive) | 91.2 µM (inactive) | 53.2 µM (inactive) | > 100 µM (inactive) | 20 µM (inactive)
7 | CCN1CCC(O)(c2ccc(O)cc2)C(C(=O)c2ccc(O)cc2)C1 (stereo unspecified) | 3.21 µM (inactive) | 29.3 µM (inactive) | > 100 µM (inactive) | 26.3 µM (inactive) | 10.8 µM (inactive) | 40.6 µM (inactive) | 3.18 µM (inactive) | 25.8 µM (inactive) |  | 8.77 µM (inactive) | 16.3 µM (inactive) |  |  | 13.3 µM (inactive) | 16.5 µM (inactive) | > 10 µM (inactive) | 17.3 µM (inactive) |  | 27.6 µM (inactive)
8 | O=C1CCCC1C(O)(C(F)(F)Cl)C(F)(F)Cl (stereo unspecified) | > 10 µM (inactive) | > 10 µM (inactive) | > 10 µM (inactive) | > 10 µM (inactive) | > 10 µM (inactive) | > 10 µM (inactive) | > 10 µM (inactive) | > 10 µM (inactive) | > 10 µM (inactive) | > 10 µM (inactive) | > 10 µM (inactive) | > 10 µM (inactive) | > 10 µM (inactive) | > 10 µM (inactive) | > 10 µM (inactive) | > 10 µM (inactive) | > 10 µM (inactive) | > 10 µM (inactive) | > 10 µM (inactive)
9 | N#Cc1c(N2CCCC2)ncn(-c2ccccc2)c1=S | > 100 µM (inactive) | > 100 µM (inactive) | > 100 µM (inactive) | > 100 µM (inactive) | > 100 µM (inactive) | > 100 µM (inactive) | > 100 µM (inactive) | > 100 µM (inactive) | > 100 µM (inactive) | > 100 µM (inactive) | > 100 µM (inactive) | > 100 µM (inactive) | > 100 µM (inactive) | > 100 µM (inactive) | > 100 µM (inactive) | > 100 µM (inactive) | > 100 µM (inactive) | > 100 µM (inactive) | > 100 µM (inactive)
